Measured values from US20220281886A1, “NATRIURETIC PEPTIDE RECEPTOR A AGONISTS USEFUL FOR THE TREATMENT OF CARDIOMETABOLIC DISEASES, KIDNEY DISEASE AND DIABETES” (Merck Sharp & Dohme Corp., priority 2019, published 2022).

Target: T1, hNPRA (Homo sapiens, UniProt P16066)
T1 construct: expressed in transfected cells
T1 sequence (P16066 33-1061): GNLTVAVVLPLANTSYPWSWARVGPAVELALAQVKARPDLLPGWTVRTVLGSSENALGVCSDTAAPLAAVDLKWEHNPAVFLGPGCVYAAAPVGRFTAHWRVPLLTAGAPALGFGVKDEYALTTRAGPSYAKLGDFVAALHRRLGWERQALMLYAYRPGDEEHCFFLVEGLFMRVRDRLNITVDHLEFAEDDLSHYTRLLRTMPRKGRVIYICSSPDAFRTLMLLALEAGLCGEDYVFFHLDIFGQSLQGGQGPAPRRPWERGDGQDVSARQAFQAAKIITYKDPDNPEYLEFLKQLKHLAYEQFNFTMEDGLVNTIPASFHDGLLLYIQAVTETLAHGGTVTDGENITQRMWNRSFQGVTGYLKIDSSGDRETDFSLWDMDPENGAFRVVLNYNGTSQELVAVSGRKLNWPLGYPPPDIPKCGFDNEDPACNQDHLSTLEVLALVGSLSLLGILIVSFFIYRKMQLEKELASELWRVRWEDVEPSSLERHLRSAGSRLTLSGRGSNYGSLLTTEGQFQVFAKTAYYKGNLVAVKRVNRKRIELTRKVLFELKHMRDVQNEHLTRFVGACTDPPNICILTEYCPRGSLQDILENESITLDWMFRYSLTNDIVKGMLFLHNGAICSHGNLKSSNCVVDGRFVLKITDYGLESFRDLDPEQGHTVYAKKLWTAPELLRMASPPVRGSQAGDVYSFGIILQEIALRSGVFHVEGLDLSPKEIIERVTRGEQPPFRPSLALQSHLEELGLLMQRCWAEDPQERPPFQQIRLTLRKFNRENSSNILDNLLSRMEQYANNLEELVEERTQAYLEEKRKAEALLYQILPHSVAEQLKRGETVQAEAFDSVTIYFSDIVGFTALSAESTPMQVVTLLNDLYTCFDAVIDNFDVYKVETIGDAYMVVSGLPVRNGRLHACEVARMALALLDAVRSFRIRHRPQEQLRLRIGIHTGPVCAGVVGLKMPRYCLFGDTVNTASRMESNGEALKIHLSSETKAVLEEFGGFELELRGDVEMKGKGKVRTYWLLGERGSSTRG
Experiment: NPRA Functional Cell Assay (cGMP HTRF)
Assay type: cell-based
Conditions: Human NPRA HEK JumpIn stable cells; cGMP by HTRF after 1 hour at 37° C.; 10-point dose response
How it was run: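 HEK JumpIn cells stably expressing human, rat or dog NPRA incubated 1 hour at 37° C with compound (10-point titration) in Opti-MEM buffer with 100 uM IBMX and 100 uM RO20. cGMP measured by HTRF against an on-plate calibration curve; EC50 from 4-parameter fit, positive control 10 nM rat-ANP (rat) or 50 nM h-ANP (human, dog).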

EC50: 216 nM
SMILES: CC(C)[C@]1(F)CCc2nc3c(F)cc(C(=O)N[C@H](CCN4CCCCC4CCN(C)C)c4ccc(-c5ccnnc5)nc4)cc3cc2C1 (mixture of isomers) [Example 43, rac-(7S)-4,7-difluoro-7-isopropyl-N-[rac-(1R)-3-[2-[2-(dimethylamino)ethyl]piperidin-1-ium-1-yl]-1-(6-pyridazin-4-yl-3-pyridyl)propyl]-6,8-dihydro-5H-acridine-2-carboxamide;2,2,2-trifluoroacetate]
